This is an account of results in article PMC12442099 (ACS Infectious Diseases, 2025).

In brackets after ≈: the same amount, converted by molar mass.

In test [1] the test system is A. baumanni 9955. As to the kind of experiment: MIC broth microdilution. Type of test: cell-based. The note with it: Acinetobacter baumannii, clinical isolate, CAMHB, median of triplicates, read-out: MIC (μg/mL) A. baumanni 9955. The method, then:
(§1) The antibacterial activity of the compounds was determined by measuring their minimum inhibitory concentration (MIC) values using the broth microdilution method according to the Clinical and Laboratory Standards Institute guidelines (CLSI). Briefly, a single colony from blood agar plates was inoculated into cation-adjusted Mueller-Hinton broth (CAMHB) and grown to OD600 = 0.5. Next, 10^6 CFU/mL were added to a 2-fold serial dilution series of test compounds and incubated at 37 °C, 600 rpm overnight (18–20 h for Gram-negative strains, 20–24 h for Gram-positive strains), after which the plates were visually inspected for bacterial growth. MICs are reported as the median of triplicates.

Test [2] relates to E. coli 25922. The test is described as follows: MIC broth microdilution. It counts as cell-based. The note with it: Escherichia coli, CAMHB, median of triplicates, read-out: MIC (μg/mL) E. coli 25922. The method, then: as §1
The test system of test [3] is E. coli BW25113. As to the kind of experiment: MIC broth microdilution. Type of test: cell-based. The note with it: Escherichia coli, CAMHB, median of triplicates, read-out: MIC (μg/mL) E. coli BW25113. The method, then: as §1
Test [4] deals with E. coli TOP10F’. As to the kind of experiment: MIC broth microdilution. Type of test: cell-based. The note with it: Escherichia coli; screening strain; CAMHB, median of triplicates; read-out: MIC (μg/mL) E. coli TOP10F’. The method, then: as §1
Test [5] deals with K. pneumoniae 13883. As to the kind of experiment: MIC broth microdilution. It counts as cell-based. The note with it: Klebsiella pneumoniae, clinical isolate, CAMHB, median of triplicates, read-out: MIC (μg/mL) K. pneumoniae 13883. As for the experimental part:
as §1

In test [6] the test system is P. aeruginosa 27853. The test is described as follows: MIC broth microdilution. It counts as cell-based. The note with it: Pseudomonas aeruginosa, clinical isolate, CAMHB, median of triplicates, read-out: MIC (μg/mL) P. aeruginosa 27853. The method, then:
as §1

For test [7], the system named is S. aureus USA 300. The test is described as follows: MIC broth microdilution. It counts as cell-based. The note with it: Staphylococcus aureus, USA300; clinical isolate; CAMHB, median of triplicates; read-out: MIC (μg/mL) S. aureus USA 300. The method, then:
as §1

Test [8] deals with Rcs stress response in E. coli MC4100 (WT, FQR, GEPR). As to the kind of experiment: Rcs stress reporter assay in MC4100 wildtype and resistant mutants. It counts as cell-based. The note with it: EC80 concentrations. From the text: Serial passaging of E. coli MC4100 in the presence of increasing concentrations of lomefloxacin or gepotidacin yielded resistant variants of E. coli MC4100. We used MC4100 to raise resistance, because unlike the screening strain TOP10F’, this strain has a functional SOS stress response, which has been implicated in developing resistance against quinolones. Compounds also elicited a robust Rcs stress response in E. coli MC4100, allowing for this strain to be used for stress assays.
4 Rcs stress induced by EC80 concentrations of (A) lomefloxacin, (B) gepotidacin, (C) A2, and (D) B1 in wildtype (WT), fluoroquinolone resistant (FQR) or gepotidacin resistant (GEPR) bacteria. Graphs show the fold change in fluorescence adjusted for bacterial growth as determined by OD600. Error bars indicate the standard deviation of triplicate samples. Data are representative of three independent experiments with similar results. […]
For lower throughput analysis under laboratory conditions, cultures grown to OD600 of 0.3–0.4 were diluted to a final concnetration of 0.05 OD600 units/mL in black, clear-bottom 96-well plates (Greiner Bio-One B.V.). Plates were incubated in a Biotek HTX or H1 plate reader (Agilent Technologies) at 37 °C with continuous shaking. Kinetic studies were performed by measuring OD600 and fluorescence (Ex./Em. Λ: 485/528 nm) every 20 min for 10h. For end point measurements, fluorescence was measured at T = 0 and once more at T = 150 min.

Test [9] has as its system E. coli MC4100 FQR and GEPR mutants. As to the kind of experiment: Growth kinetics on resistant mutants. Type of test: cell-based. The note with it: EC80 concentrations, Fig. S3. As for the experimental part:
ONC of E. coli MC4100 were diluted to OD600 = 0.07 in 20 mL LB supplemented with an initial concentration of 0.4 μM lomefloxacin, 8 μM gepotidacin, or no antibiotic. After overnight incubation, part of the culture was plated onto LB agar plates with the same concentration of lomefloxacin or gepotidacin to isolate resistant colonies. OD600 of the remaining culture was determined and diluted to OD600 = 0.1 into fresh medium with a 1.5–2-fold increased concentration of lomefloxacin or gepotidacin. […] Resistant colonies were sent for Whole Genome Sequencing using short Illumina reads at MicrobesNG (Birmingham, UK). Sequencing data was analyzed using CLC Genomics Workbench (Qiagen).
Figure S3: Growth kinetics of lomefloxacin, gepotidacin, A2 and B1 on WT, FQR and GEPR mutants. E. coli
TOP10F’ cells were treated with EC80 concentrations of compounds and growth (OD600) recorded over time.
Graphs indicate % growth compared to DMSO control. Error bars indicate standard deviations of triplicates. […]

The test system of test [10] is E. coli TOP10F'. As to the kind of experiment: Growth inhibition after 7 hours (EC80/EC50). The note with it: for EC50 / IC80: Escherichia coli, 7 h; for EC50: read-out: EC50 TOP10F'; for IC80: read-out: EC80 TOP10F'.

Consider `O=C1COc2ccc(CNC3CCN(CC4Cc5c(F)cc(F)c6ccc(=O)n4c56)CC3)nc2N1` (centres unmarked) [B1], for which the MIC was 0.25 µg/mL (≈ 0.519 µM) in test [1]; 0.5 µg/mL (≈ 1.04 µM) in test [2]; 0.25 µg/mL (≈ 0.519 µM) in test [3]; less than 0.03 µg/mL in test [4]; 1 µg/mL (≈ 2.08 µM) in [5]; 8 µg/mL (≈ 16.6 µM) in [6]. Moreover, the MIC in test [7] turned out to be 0.06 µg/mL (≈ 0.125 µM). For the same compound, the “Rcs stress in FQR (gyrA S83L) mutant” value in test [8] is on record as “still exhibited Rcs stress”. In addition, in [8], the “Rcs stress in GEPR mutant” value is “did not show Rcs stress”. Moreover, the “growth inhibition / susceptibility of FQR (gyrA S83L) mutant” value in test [9] is reported as “remained susceptible to growth inhibition”. In [9], the “growth inhibition / susceptibility of GEPR mutant” value was “exhibited cross-resistance”. The EC50 in test [10] is 0.031 mg/L (≈ 0.0644 µM). Also, the IC80 in test [10] was 0.5 mg/L (≈ 1.04 µM).
In the case of `CC(C)(C)n1cc(C(=O)O)c(=O)c2cc(F)c(N3CC4CC3CN4)nc21` (centres unmarked) [A2], the MIC in [1] is 0.5 µg/mL (≈ 1.39 µM); in test [2], 0.125 µg/mL (≈ 0.347 µM); in [3] it was 0.06 µg/mL (≈ 0.166 µM); in [4] it was less than 0.03 µg/mL; in test [5] it was 0.125 µg/mL (≈ 0.347 µM); in test [6], 1 µg/mL (≈ 2.77 µM). Further, the MIC in test [7] was 8 µg/mL (≈ 22.2 µM). For the same compound, the “Rcs stress in FQR (gyrA S83L) mutant” value in test [8] is reported as “lacked Rcs stress”. The “growth inhibition / susceptibility of FQR (gyrA S83L) mutant” value in [9] is given as “showed cross-resistance”. Also, the “growth inhibition / susceptibility of GEPR mutant” value in test [9] is recorded as “less susceptible”. Besides, the EC50 in test [10] amounted to 0.016 mg/L (≈ 0.0444 µM). Further, the IC80 in [10] is 0.063 mg/L (≈ 0.175 µM). Besides, the EC80 concentration result in [10] (as quoted in the NPN section) was “around 0.35 μM”.
